Assay results as given in patent US11236069B2, “KIF18A inhibitors” (AMGEN INC., priority 2018, dated 2022).

molecular target: Recombinant human KIF18A (1-467 His-tagged) protein (Homo sapiens (Human), UniProt Q8NI77); experiment: KIF18A Enzyme Assay: microtubule-stimulated ATPase activity (ADP-Glo); conditions: read-out: KIF18A ATPase IC50; 30 nM KIF18A, 30 μg/mL pig microtubules, ATP at Km 75 μM, ADP-Glo luminescence
Sequence (Q8NI77 1-467): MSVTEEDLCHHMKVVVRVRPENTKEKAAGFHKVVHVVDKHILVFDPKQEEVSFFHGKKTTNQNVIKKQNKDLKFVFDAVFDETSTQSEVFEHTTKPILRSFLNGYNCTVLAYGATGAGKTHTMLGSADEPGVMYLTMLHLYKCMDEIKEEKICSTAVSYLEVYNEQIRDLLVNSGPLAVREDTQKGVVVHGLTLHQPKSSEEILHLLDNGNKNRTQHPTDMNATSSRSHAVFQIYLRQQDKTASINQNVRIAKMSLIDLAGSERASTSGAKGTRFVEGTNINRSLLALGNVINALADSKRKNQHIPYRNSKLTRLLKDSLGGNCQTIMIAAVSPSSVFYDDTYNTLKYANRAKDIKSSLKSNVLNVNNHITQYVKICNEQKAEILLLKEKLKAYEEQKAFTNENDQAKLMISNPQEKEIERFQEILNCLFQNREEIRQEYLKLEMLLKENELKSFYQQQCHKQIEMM
Sequence (P02550 whole entry partner): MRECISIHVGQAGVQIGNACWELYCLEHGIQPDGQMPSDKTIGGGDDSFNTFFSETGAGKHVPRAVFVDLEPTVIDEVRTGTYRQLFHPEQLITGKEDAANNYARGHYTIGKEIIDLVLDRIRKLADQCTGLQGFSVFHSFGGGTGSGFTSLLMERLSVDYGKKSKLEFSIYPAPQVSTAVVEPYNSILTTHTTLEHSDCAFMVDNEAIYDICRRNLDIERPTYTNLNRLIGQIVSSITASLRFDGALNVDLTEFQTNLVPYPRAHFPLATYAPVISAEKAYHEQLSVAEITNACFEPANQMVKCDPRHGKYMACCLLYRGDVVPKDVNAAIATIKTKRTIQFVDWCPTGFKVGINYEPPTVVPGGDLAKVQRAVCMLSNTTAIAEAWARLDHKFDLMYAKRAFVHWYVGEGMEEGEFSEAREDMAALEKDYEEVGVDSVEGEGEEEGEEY
Sequence (P02554 whole entry partner): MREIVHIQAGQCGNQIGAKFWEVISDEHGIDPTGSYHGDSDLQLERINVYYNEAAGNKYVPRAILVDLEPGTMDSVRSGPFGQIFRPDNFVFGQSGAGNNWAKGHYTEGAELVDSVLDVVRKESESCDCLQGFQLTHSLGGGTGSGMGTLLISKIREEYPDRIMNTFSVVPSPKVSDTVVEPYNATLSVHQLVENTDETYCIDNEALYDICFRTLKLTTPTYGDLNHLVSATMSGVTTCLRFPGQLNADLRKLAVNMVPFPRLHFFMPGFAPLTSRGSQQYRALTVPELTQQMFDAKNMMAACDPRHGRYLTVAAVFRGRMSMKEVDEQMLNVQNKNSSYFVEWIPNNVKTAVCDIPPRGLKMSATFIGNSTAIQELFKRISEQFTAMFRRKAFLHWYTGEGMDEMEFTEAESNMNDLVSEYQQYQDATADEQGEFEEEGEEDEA
Text: KIF18A Enzyme Assay: Microtubule-stimulated ATPase activity assay is used to measure KIF18A enzyme activity after treatment with compound. Compounds were 2-fold serially diluted in DMSO (Sigma Inc) over 22-point concentration range. […] The assay measures ADP formed from the ATPase reaction.

IC50 [nM]	Compound
23	O=C(Nc1ccnc(N2CCC(F)(F)CC2)c1)c1ccc(S(=O)(=O)NCCO)cc1N1CCC2(CC1)CC2 [Example 17, N-(2-(4,4-Difluoropiperidin-1-yl)pyridin-4-yl)-4-(N-(2-hydroxyethyl)sulfamoyl)-2-(6-azaspiro[2.5]octan-6-yl)benzamide]
40	Cc1cc(NC(=O)c2ccc(NS(=O)(=O)C3COC3)cc2N2CCC3(CC2)CC3)nc(N2CCC(F)(F)CC2)n1 [Example 6-12, N-(2-(4,4-Difluoropiperidin-1-yl)-6-methylpyrimidin-4-yl)-4-(oxetane-3-sulfonamido)-2-(6-azaspiro[2.5]octan-6-yl)benzamide]
31	C[C@@H](CO)S(=O)(=O)Nc1ccc(C(=O)Nc2ccnc(N3CCC(F)(F)CC3)n2)c(N2CCC3(CC2)CC3)c1 [Example 6-26-1, (S)-N-(2-(4,4-Difluoropiperidin-1-yl)pyrimidin-4-yl)-4-((2-hydroxy-1-methylethyl)sulfonamido)-2-(6-azaspiro[2.5]octan-6-yl)benzamide]
71.6	Cc1cc(NC(=O)c2ccc(NS(=O)(=O)CCO)cc2N2CCC3(CC2)CC3)nc(N2CCCC2)n1 [Example 11-26, 4-((2-Hydroxyethyl)sulfonamido)-N-(6-methyl-2-(pyrrolidin-1-yl)pyrimidin-4-yl)-2-(6-azaspiro[2.5]octan-6-yl)benzamide]
55.1	Cc1cc(NC(=O)c2ccc(NS(C)(=O)=O)cc2N2CCC3(CC2)CC3)nc(N2CC(F)(F)C2)n1 [Example 11-24, N-(2-(3,3-Difluoroazetidin-1-yl)-6-methylpyrimidin-4-yl)-4-(methylsulfonamido)-2-(6-azaspiro[2.5]octan-6-yl)benzamide]
143	CC1(NS(=O)(=O)c2ccc(C(=O)Nc3ccnc(C(C)(C)O)n3)c(N3CCC4(CC3)CC4)c2)COC1 [Example 2, N-(2-(2-Hydroxypropan-2-yl)pyrimidin-4-yl)-4-(N-(3-methyloxetan-3-yl)sulfamoyl)-2-(6-azaspiro[2.5]octan-6-yl)benzamide]
53	Cc1cc(NC(=O)c2ccc(NS(=O)(=O)C3(CO)CC3)cc2N2CCC3(CC2)CC3)nc(N2CC(F)(F)C2)n1 [Example 11-68, N-(2-(3,3-Difluoroazetidin-1-yl)-6-methylpyrimidin-4-yl)-4-((1-(hydroxymethyl)cyclopropane)-1-sulfonamido)-2-(6-azaspiro[2.5]octan-6-yl)benzamide]
41	Cc1cc(NC(=O)c2ccc(NS(=O)(=O)[C@H](C)CO)cc2N2CCC3(CC2)CC3)nc(N2CCC(F)CC2)n1 [Example 6-25-2, (R)-N-(2-(4-Fluoropiperidin-1-yl)-6-methylpyrimidin-4-yl)-4-((2-hydroxy-1-methylethyl)sulfonamido)-2-(6-azaspiro[2.5]octan-6-yl)benzamide]
117	Cc1cc(NC(=O)c2ccc(NS(=O)(=O)CCO)cc2N2CCC3(CC2)CC3)nc(O[C@@H]2CCOC2)n1 [Example 11-80, (R)-4-((2-Hydroxyethyl)sulfonamido)-N-(6-methyl-2-((tetrahydrofuran-3-yl)oxy)pyrimidin-4-yl)-2-(6-azaspiro[2.5]octan-6-yl)benzamide]
225	O=C(Nc1cc(C2CC2)nc(N2CCC(F)(F)CC2)n1)c1ccc(NS(=O)(=O)CCO)cc1N1CCC2(CC1)CC2 [Example 6-39, N-(6-Cyclopropyl-2-(4,4-difluoropiperidin-1-yl)pyrimidin-4-yl)-4-((2-hydroxyethyl)sulfonamido)-2-(6-azaspiro[2.5]octan-6-yl)benzamide]
94	Cc1cc(NC(=O)c2ccc(S(=O)(=O)[C@@H]3COC[C@H]3O)cc2N2CCC3(CC2)CC3)nc(N2CCC(F)(F)CC2)n1 [Example 14-7, N-(2-(4,4-Difluoropiperidin-1-yl)-6-methylpyrimidin-4-yl)-4-(((3R,4R)-4-hydroxytetrahydrofuran-3-yl)sulfonyl)-2-(6-azaspiro[2.5]octan-6-yl)benzamide]
68	C[C@@H]1CN(c2nccc(NC(=O)c3ccc(S(=O)(=O)NC4(C)COC4)cc3N3CCC4(CC3)CC4)n2)CCO1 [Example 2-2, (R)-N-(2-(2-Methylmorpholino)pyrimidin-4-yl)-4-(N-(3-methyloxetan-3-yl)sulfamoyl)-2-(6-azaspiro[2.5]octan-6-yl)benzamide]
52	Cc1cc(NC(=O)c2ccc(NS(=O)(=O)C3CC3)cc2N2CCC3(CC2)CC3)nc(N2CCC(F)(F)CC2)n1 [Example 6-16, 4-(Cyclopropanesulfonamido)-N-(2-(4,4-difluoropiperidin-1-yl)-6-methylpyrimidin-4-yl)-2-(6-azaspiro[2.5]octan-6-yl)benzamide]
491	Cc1cc(NC(=O)c2ccc(S(C)(=O)=O)cc2N2CCC3(CC2)CC3)nc(N[C@@H](C)CO)n1 [Example 1-2, (S)-N-(2-((1-Hydroxypropan-2-yl)amino)-6-methylpyrimidin-4-yl)-4-(methylsulfonyl)-2-(6-azaspiro[2.5]octan-6-yl)benzamide]
23	O=C(Nc1ccnc(N2CC(F)(F)C2)n1)c1ccc(NS(=O)(=O)CCO)cc1N1CCC2(CC1)CC2 [Example 11-7, N-(2-(3,3-Difluoroazetidin-1-yl)pyrimidin-4-yl)-4-((2-hydroxyethyl)sulfonamido)-2-(6-azaspiro[2.5]octan-6-yl)benzamide]
91	Cc1cc(NC(=O)c2cc(F)c(NS(=O)(=O)[C@H](C)CO)cc2N2CCC3(CC2)CC3)nc(N2CCC(F)(F)CC2)n1 (single isomer, unassigned) [Example 8-1]
29	CC1(NS(=O)(=O)c2ccc(C(=O)Nc3ccnc(N4CCC(F)(F)CC4)c3)c(N3CCC4(CC3)CC4)c2)COC1 [Example 2-4, N-(2-(4,4-Difluoropiperidin-1-yl)pyridin-4-yl)-4-(N-(3-methyloxetan-3-yl)sulfamoyl)-2-(6-azaspiro[2.5]octan-6-yl)benzamide]
788	Cc1cc(NC(=O)c2ccc(NS(=O)(=O)C3CC3)cc2N2CCC3(CC2)CC3)nc(N2CC(F)(F)C2)n1 [Example 11-22, 4-(Cyclopropanesulfonamido)-N-(2-(3,3-difluoroazetidin-1-yl)-6-methylpyrimidin-4-yl)-2-(6-azaspiro[2.5]octan-6-yl)benzamide]
133	Cc1cc(NC(=O)c2ccc(S(=O)(=O)NCCO)cc2N2CCC3(CC2)CC3)nc(N2CC(F)(F)C2)n1 [Example 17-5, N-(2-(3,3-Difluoroazetidin-1-yl)-6-methylpyrimidin-4-yl)-4-(N-(2-hydroxyethyl)sulfamoyl)-2-(6-azaspiro[2.5]octan-6-yl)benzamide]
67	CCS(=O)(=O)Nc1ccc(C(=O)Nc2cc(C)nc(N3CCO[C@H](C)C3)n2)c(N2CCC3(CC2)CC3)c1 [Example 6-6, (R)-4-(Ethylsulfonamido)-N-(6-methyl-2-(2-methylmorpholino)pyrimidin-4-yl)-2-(6-azaspiro[2.5]octan-6-yl)benzamide]
78	CC[S@@](=N)(=O)c1ccc(C(=O)Nc2cc(C)nc(N3CCC(F)(F)CC3)n2)c(N2CCC3(CC2)CC3)c1 [Example 19-3, 2-(6-Azaspiro[2.5]octan-6-yl)-N-(2-(4,4-difluoro-1-pieridinyl)-6-methyl-4-pyrimidinyl)-4-(S-ethylsulfonimidoyl)benzamide]
28	C[C@@H]1CN(c2nccc(NC(=O)c3ccc(NS(=O)(=O)[C@H](C)CO)cc3N3CCC4(CC3)CC4)n2)CCO1 [Example 6-24-2, 4-(((R)-2-hydroxy-1-methylethyl)sulfonamido)-N-(2-((R)-2-methylmorpholino)pyrimidin-4-yl)-2-(6-azaspiro[2.5]octan-6-yl)benzamide]
2420	Cc1cc(NC(=O)c2ccc(NS(=O)(=O)C3CCCC3)cc2N2CCC3(CC2)CC3)nc(N2CCC(F)(F)CC2)n1 [Example 6-10, 4-(Cyclopentanesulfonamido)-N-(2-(4,4-difluoropiperidin-1-yl)-6-methylpyrimidin-4-yl)-2-(6-azaspiro[2.5]octan-6-yl)benzamide]
127	Cc1cc(NC(=O)c2ccc(S(=O)(=O)N[C@H](C)CO)cc2N2CCC3(CC2)CC3)nc(N2CCC(F)(F)CC2)n1 [Example 17-6, (R)-N-(2-(4,4-Difluoropiperidin-1-yl)-6-methylpyrimidin-4-yl)-4-(N-(1-hydroxypropan-2-yl)sulfamoyl)-2-(6-azaspiro[2.5]octan-6-yl)benzamide]
125	Cc1cc(NC(=O)c2ccc(NS(=O)(=O)CC3CC3)cc2N2CCC3(CC2)CC3)nc(N2CC(F)(F)C2)n1 [Example 11-78, 4-((Cyclopropylmethyl)sulfonamido)-N-(2-(3,3-difluoroazetidin-1-yl)-6-methylpyrimidin-4-yl)-2(6-azaspiro[2.5]octan-6-yl)benzamide]
158	Cc1cc(NC(=O)c2cc(F)c(NS(=O)(=O)CCO)cc2N2CCC3(CC2)CC3)nc(N2CCO[C@H](C)C2)n1 [Example 9-2, (R)-5-Fluoro-4-((2-hydroxyethyl)sulfonamido)-N-(6-methyl-2-(2-methylmorpholino)pyrimidin-4-yl)-2-(6-azaspiro[2.5]octan-6-yl)benzamide]
79	Cc1cc(NC(=O)c2ccc(NS(=O)(=O)CF)cc2N2CCC3(CC2)CC3)nc(N2CCO[C@H](C)C2)n1 [Example 6-3, (R)-4-((Fluoromethyl)sulfonamido)-N-(6-methyl-2-(2-methylmorpholino)pyrimidin-4-yl)-2-(6-azaspiro[2.5]octan-6-yl)benzamide]
216	Cc1cc(NC(=O)c2ccc(S(C)(=O)=O)cc2N2CCC3(CC2)CC3)nc(N[C@H](C)CO)n1 [Example 1-1, (R)-N-(2-((1-Hydroxypropan-2-yl)amino)-6-methylpyrimidin-4-yl)-4-(methylsulfonyl)-2-(6-azaspiro[2.5]octan-6-yl)benzamide]

Compound	IC50 [nM]
Cc1cc(NC(=O)c2ccc(NS(=O)(=O)CCO)cc2N2CCC3(CC2)CC3)nc(OC2CCC2)n1 [Example 11-4, N-(2-Cyclobutoxy-6-methylpyrimidin-4-yl)-4-((2-hydroxyethyl)sulfonamido)-2-(6-azaspiro[2.5]octan-6-yl)benzamide]	18
